# Where “and” joins values, the source holds several entries; their conditions need not be identical. Equal values may be shown once. Inconclusive results and toxic doses are left out.
# System: CD2F1 mice, L1210 leukemia ip, survival T/C
# Test: NCI In Vivo Anticancer Drug Screen. Data for tumor model L1210 Leukemia (intraperitoneal) in CD2F1 (CDF1) mice
# Conditions: higher = longer survival
# How it was run: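 Antitumor effect is scored in animals hosting a serially transplanted tumor. Values compare compound-dosed animals against vehicle-only controls as a simple quotient.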
# [1] = endpoint: mean survival time, dose: 100.0 mg/kg/injection, schedule: Q01DX001 (ip), vehicle: saline with Tween-80
# [2] = endpoint: mean survival time, dose: 200.0 mg/kg/injection, schedule: Q01DX001 (ip), vehicle: saline with Tween-80
# [3] = endpoint: mean survival time, dose: 25.0 mg/kg/injection, schedule: Q01DX009 (ip), vehicle: saline with Tween-80
# [4] = endpoint: mean survival time, dose: 50.0 mg/kg/injection, schedule: Q01DX009 (ip), vehicle: saline with Tween-80
# [5] = endpoint: mean survival time, dose: 100.0 mg/kg/injection, schedule: Q01DX009 (ip), vehicle: saline with Tween-80
# [6] = endpoint: mean survival time, dose: 100.0 mg/kg/injection, schedule: Q04DX003 (ip), vehicle: saline with Tween-80
# [7] = endpoint: mean survival time, dose: 200.0 mg/kg/injection, schedule: Q04DX003 (ip), vehicle: saline with Tween-80
# [8] = endpoint: mean survival time, dose: 400.0 mg/kg/injection, schedule: Q04DX003 (ip), vehicle: saline with Tween-80
structure (smiles),measurement,setting,value
CC1=CC(=O)C(C(=O)CC(O)(C(F)(F)F)C(F)(F)F)C(=O)O1 (centres undefined),T/C,[1],98 % of control
same,T/C,[2],104 % of control
same,T/C,"endpoint: mean survival time, dose: 400.0 mg/kg/injection, schedule: Q01DX001 (ip), vehicle: saline with Tween-80",95 % of control
CN(C)c1ccn(C2OC(CO)C(O)C2SC(C)(C)C)c(=O)n1 (centres undefined),T/C,"endpoint: median survival time, dose: 12.5 mg/kg/injection, schedule: Q01DX005 (ip), vehicle: saline",100 % of control
same,T/C,"endpoint: median survival time, dose: 25.0 mg/kg/injection, schedule: Q01DX005 (ip), vehicle: saline",99 % of control
same,T/C,"endpoint: median survival time, dose: 50.0 mg/kg/injection, schedule: Q01DX005 (ip), vehicle: saline",97 % of control
same,T/C,"endpoint: median survival time, dose: 100.0 mg/kg/injection, schedule: Q01DX005 (ip), vehicle: saline",104 % of control
same,T/C,"endpoint: median survival time, dose: 200.0 mg/kg/injection, schedule: Q01DX005 (ip), vehicle: saline",96 % of control
N=C(N)c1ccc(OCCCOc2ccc(NC(=O)Nc3ccc(S(=O)(=O)F)cc3)cc2)cc1,T/C,"endpoint: mean survival time, dose: 50.0 mg/kg/injection, schedule: Q01DX001 (ip), vehicle: saline with Tween-80",95 % of control
same,T/C,[1],89 % of control
same,T/C,[2],93 % of control
Cc1ccc(S(=O)(=O)OC2(c3ccc(C(F)(F)F)cc3)C3CCC2CC3)cc1 (centres undefined),T/C,"endpoint: mean survival time, dose: 12.5 mg/kg/injection, schedule: Q04DX002 (ip), vehicle: saline with Tween-80",104 % of control
same,T/C,"endpoint: mean survival time, dose: 25.0 mg/kg/injection, schedule: Q04DX002 (ip), vehicle: saline with Tween-80",101 % of control
same,T/C,"endpoint: mean survival time, dose: 50.0 mg/kg/injection, schedule: Q04DX002 (ip), vehicle: saline with Tween-80",104 % of control
CC(NCCN1CC1)C1CC1 (centres undefined),T/C,"endpoint: mean survival time, dose: 17.6 mg/kg/injection, schedule: Q01DX009 (ip), vehicle: saline",94 % of control
same,T/C,"endpoint: mean survival time, dose: 26.4 mg/kg/injection, schedule: Q01DX009 (ip), vehicle: saline",100 % of control
same,T/C,"endpoint: mean survival time, dose: 40.0 mg/kg/injection, schedule: Q01DX009 (ip), vehicle: saline",105 % of control
same,T/C,"endpoint: mean survival time, dose: 60.0 mg/kg/injection, schedule: Q01DX009 (ip), vehicle: saline",117 % of control
COC1OC2COC(c3ccccc3)OC2C(O)C1N (centres undefined),T/C,[3],96 % of control
same,T/C,[4],100 % of control
same,T/C,[5],103 % of control
Cc1ccccc1NC(=O)CN(C)C,T/C,"endpoint: mean survival time, dose: 100.0 mg/kg/injection, schedule: Q01DX001 (ip), vehicle: other",98 % of control
same,T/C,"endpoint: mean survival time, dose: 200.0 mg/kg/injection, schedule: Q01DX001 (ip), vehicle: other",103 % of control
CCCCCCCCCCCCCCCCCC(=O)NN,T/C,[5],93 % of control
same,T/C,[6],91 % of control
same,T/C,"endpoint: mean survival time, dose: 200.0 mg/kg/injection, schedule: Q01DX009 (ip), vehicle: saline with Tween-80",104 % of control
same,T/C,[7],96 % of control
same,T/C,"endpoint: mean survival time, dose: 266.0 mg/kg/injection, schedule: Q01DX009 (ip), vehicle: saline with Tween-80",119 % of control
same,T/C,[8],109 % of control
same,T/C,"endpoint: mean survival time, dose: 600.0 mg/kg/injection, schedule: Q01DX009 (ip), vehicle: saline with Tween-80",119 % of control
CCCCNC(=O)Oc1ccc(C(=O)OCC)cc1,T/C,[3],100 % of control
same,T/C,[4],97 % of control
same,T/C,[5],97 % of control and 100 % of control
same,T/C,[6],96 % of control
same,T/C,[7],96 % of control
same,T/C,[8],90 % of control
O=c1[nH]cc(F)c(=O)n1C1OC(CO)C(O)C1O (centres undefined),T/C,"endpoint: mean survival time, dose: 1.0 mg/kg/injection, schedule: Q01DX009 (ip), vehicle: saline",169 % of control
same,T/C,"endpoint: mean survival time, dose: 2.0 mg/kg/injection, schedule: Q01DX005 (ip), vehicle: saline",160 % of control
same,T/C,"endpoint: mean survival time, dose: 2.0 mg/kg/injection, schedule: Q01DX009 (ip), vehicle: saline",160 % of control
same,T/C,"endpoint: mean survival time, dose: 4.0 mg/kg/injection, schedule: Q01DX005 (ip), vehicle: saline",207 % of control
same,T/C,"endpoint: mean survival time, dose: 4.0 mg/kg/injection, schedule: Q01DX009 (ip), vehicle: saline",124 % of control
same,T/C,"endpoint: mean survival time, dose: 5.0 mg/kg/injection, schedule: Q03HX024 (ip), vehicle: saline",155 % of control
same,T/C,"endpoint: mean survival time, dose: 5.0 mg/kg/injection, schedule: Q04DX003 (ip), vehicle: saline",163 % of control
same,T/C,"endpoint: mean survival time, dose: 10.0 mg/kg/injection, schedule: Q03HX024 (ip), vehicle: saline",231 % of control
same,T/C,"endpoint: mean survival time, dose: 10.0 mg/kg/injection, schedule: Q04DX003 (ip), vehicle: saline",189 % of control
same,T/C,"endpoint: mean survival time, dose: 20.0 mg/kg/injection, schedule: Q01DX001 (ip), vehicle: saline",151 % of control
same,T/C,"endpoint: mean survival time, dose: 20.0 mg/kg/injection, schedule: Q03HX024 (ip), vehicle: saline",151 % of control
same,T/C,"endpoint: mean survival time, dose: 20.0 mg/kg/injection, schedule: Q04DX003 (ip), vehicle: saline",184 % of control
O=S(=O)(O)c1ccc(-c2c3nc(c(-c4ccc(S(=O)(=O)O)cc4)c4ccc([nH]4)c(-c4ccc(S(=O)(=O)O)cc4)c4nc(c(-c5ccc(S(=O)(=O)O)cc5)c5ccc2[nH]5)C=C4)C=C3)cc1,T/C,"endpoint: mean survival time, dose: 100.0 mg/kg/injection, schedule: Q01DX001 (ip), vehicle: saline",108 % of control
same,T/C,"endpoint: mean survival time, dose: 200.0 mg/kg/injection, schedule: Q01DX001 (ip), vehicle: saline",108 % of control
same,T/C,"endpoint: mean survival time, dose: 400.0 mg/kg/injection, schedule: Q01DX001 (ip), vehicle: saline",113 % of control
Cc1c(-c2ccc(Cl)cc2)nc2cc(Cl)ccc2c1C(=O)O,T/C,"endpoint: mean survival time, dose: 100.0 mg/kg/injection, schedule: Q04DX002 (ip), vehicle: saline",92 % of control
same,T/C,"endpoint: mean survival time, dose: 200.0 mg/kg/injection, schedule: Q04DX002 (ip), vehicle: saline",88 % of control
same,T/C,"endpoint: mean survival time, dose: 400.0 mg/kg/injection, schedule: Q04DX002 (ip), vehicle: saline",98 % of control
